Experimental data as given in patent US8044082B2, “N-phenylacetamide inhibitors of the enzyme SOAT-1 and pharmaceutical/cosmetic compositions comprised thereof” (Galderma Research & Development, priority 2007, dated 2011).

How the values were obtained:
enzyme ACAT-1 = target: T1, enzyme ACAT-1 (Homo sapiens, UniProt P35610); test: ACAT-1 (SOAT-1) inhibition test in HepG2 cells with NBD-cholesterol fluorescence; type: cell-based; conditions: NBD-cholesterol 1 μg/ml, incubation 6 h at 37° C., fluorescence excitation 490 nm / emission 540 nm
T1 sequence (P35610 1-550): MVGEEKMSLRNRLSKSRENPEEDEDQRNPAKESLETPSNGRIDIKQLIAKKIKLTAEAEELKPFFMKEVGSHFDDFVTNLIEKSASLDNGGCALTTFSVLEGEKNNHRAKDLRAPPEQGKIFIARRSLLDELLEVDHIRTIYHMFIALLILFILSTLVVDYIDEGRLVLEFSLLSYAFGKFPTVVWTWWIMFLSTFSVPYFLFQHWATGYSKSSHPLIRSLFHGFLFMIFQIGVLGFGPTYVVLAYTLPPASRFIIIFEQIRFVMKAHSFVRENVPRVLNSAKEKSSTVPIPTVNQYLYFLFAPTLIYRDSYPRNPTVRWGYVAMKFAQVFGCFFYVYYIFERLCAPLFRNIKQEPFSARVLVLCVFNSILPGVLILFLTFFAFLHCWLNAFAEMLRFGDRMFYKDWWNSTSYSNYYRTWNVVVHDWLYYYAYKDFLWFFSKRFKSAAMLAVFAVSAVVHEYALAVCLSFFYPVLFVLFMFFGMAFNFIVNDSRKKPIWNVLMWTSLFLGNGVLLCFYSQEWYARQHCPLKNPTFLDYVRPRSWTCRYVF
Protocol: The compounds (I) according to the invention, as well as their pharmaceutically acceptable salts, solvates and/or hydrates, have inhibitory properties on the enzyme SOAT-1. This inhibitory activity on the enzyme SOAT-1 is measured according to a primary enzymatic test HepG2, as described in Example 64.
The compounds of formula (I) according to the invention have been subjected to a test allowing their inhibitory action with respect to the enzyme ACAT-1 to be evaluated inspired by the following publication: “Identification of ACAT1- and ACAT2-specific inhibitors using a novel, cell-based fluorescence assay: individual ACAT uniqueness”, J. Lipid Res. (2004) vol. 45, pages 378-386.
The principle of this test is based on the employment of NBD-cholesterol, an analogue of cholesterol whose fluorescence depends on its environment. When this is present in a polar environment, it is weakly fluorescent although in a nonpolar environment it is strongly fluorescent. Free NBD-cholesterol locates itself in the cell membranes and is weakly fluorescent in this polar environment. When the NBD-cholesterol is esterified by ACAT, the ester of NBD-cholesterol locates itself in the nonpolar lipid droplets and is in that case strongly fluorescent.
The method below is applied: The HepG2 cells are incubated in the presence of NBD-cholesterol (1 μg/ml) and of the compound of formula (I) to be tested in black 96-well plates with a transparent base at a rate of 30 000 cells per well. After incubation for 6 h at 37° C., under 5% CO2, the medium is eliminated by turning over and the cells are washed with 2 times 100 μl of PBS. After addition of 50 μl of lysis buffer (NaPO4 10 mM, Igepal 1%), the plates are stirred for 5 min and read in fluorescence (excitation 490 nm, emission 540 nm) on a FUSION apparatus (Perkin-Elmer).

Row | Structure (SMILES) | IC50 (enzyme ACAT-1) [nM] | melting point [°C]
1 | CC(C)c1cccc(C(C)C)c1NC(=O)CN1C(=O)N(c2ccccc2)C2(CCCC2)C1=O [compound (I.1), N-(2,6-Diisopropylphenyl)-2-(2,4-dioxo-1-phenyl-1,3-diazaspiro[4.4]non-3-yl)acetamide] | 3.2 | –
2 | CC(C)c1cccc(C(C)C)c1NC(=O)CN1C(=O)N(c2ccc(F)cc2)C2(CCCCC2)C1=O [compound (I.7), N-(2,6-Diisopropylphenyl)-2-[1-(4-fluorophenyl)-2,4-dioxo-1,3-diazaspiro-[4.5]dec-3-yl]acetamide] | 0.8 | 258
3 | Cc1ccc(N2C(=O)N(CC(=O)Nc3c(C(C)C)cccc3C(C)C)C(=O)C23CCCCC3)cc1 [compound (I.10), N-(2,6-Diisopropylphenyl)-2-(2,4-dioxo-1-p-tolyl-1,3-diazaspiro[4.5]dec-3-yl)acetamide] | 0.2 | 234
4 | CC(C)c1cccc(C(C)C)c1NC(=O)CN1C(=O)N(C2CCCCC2)C2(CCCCC2)C1=O [compound (I.14), 2-[1-Cyclohexyl-2,4-dioxo-1,3-diazaspiro[4.5]dec-3-yl)-N-(2,6-diisopropyl-phenyl)acetamide] | 4.8 | 236
5 | CC(C)c1cccc(C(C)C)c1NC(=O)CN1C(=O)N(CCc2ccccc2)C2(CCCCC2)C1=O [compound (I.23), N-(2,6-Diisopropylphenyl)-2-(2,4-dioxo-1-phenethyl-1,3-diazaspiro[4.5]dec-3-yl)acetamide] | 5.6 | 225

Continued, values first:

Row | IC50 (enzyme ACAT-1) [nM] | melting point [°C] | Structure (SMILES)
6 | 2.5 | 241 | CCCCN1C(=O)N(CC(=O)Nc2c(C(C)C)cccc2C(C)C)C(=O)C12CCCCC2 [compound (I.26), 2-(1-Butyl-2,4-dioxo-1,3-diazaspiro[4.5]dec-3-yl)-N-(2,6-diisopropylphenyl)acetamide]
7 | 0.7 | 174 | CCC1(CC)C(=O)N(CC(=O)Nc2c(C(C)C)cccc2C(C)C)C(=O)N1c1ccc(C)cc1 [compound (I.39), 2-(4,4-Diethyl-2,5-dioxo-3-p-tolylimidazolidin-1-yl)-N-(2,6-diisopropylphenyl)acetamide]
8 | 5.1 | 244 | Cc1ccc(N2C(=O)N(CC(=O)Nc3c(C)cccc3Cl)C(=O)C23CCCCC3)cc1 [compound (I.46), N-(2-Chloro-6-methylphenyl)-2-(2,4-dioxo-1-p-tolyl-1,3-diazaspiro[4.5]dec-3-yl)acetamide]
9 | 5.3 | 245 | Cc1ccc(N2C(=O)N(CC(=O)Nc3c(C)cc(C)cc3Br)C(=O)C23CCCCC3)cc1 [compound (I.52), N-(2-Bromo-4,6-dimethylphenyl)-2-(2,4-dioxo-1-p-tolyl-1,3-diazaspiro[4.5]dec-3-yl)acetamide]
10 | 2.7 | 218 | CCc1cccc(CC)c1NC(=O)CN1C(=O)N(c2ccc(Cl)cc2)C2(CCCC2)C1=O [compound (I.61), 2-[1-(4-Chlorophenyl)-2,4-dioxo-1,3-diazaspiro[4.4]non-3-yl]-N-(2,6-diethylphenyl)acetamide]
11 | – | 184 | CCc1cccc(CC)c1NC(=O)CN1C(=O)N(c2ccc(OCc3ccccc3)cc2)C2(CCCCC2)C1=O [compound (I.62), 2-[1-(4-Benzyloxyphenyl)-2,4-dioxo-1,3-diazaspiro[4.5]dec-3-yl]-N-(2,6-di-ethylphenyl)acetamide]
12 | – | 179 | CCc1cccc(CC)c1NC(=O)CN1C(=O)N(Cc2ccccc2)C2(CCCCC2)C1=O [compound (I.63), 2-(1-Benzyl-2,4-dioxo-1,3-diazaspiro[4.5]dec-3-yl)-N-(2,6-diethylphenyl)-acetamide]
